Measurements published in paper PMC2213140 (The Journal of Experimental Medicine, 2005).

Experiments:
[1] = tested on: splenocytes from ESO 9V- or ESO 9C-immunized A2K^b mice; test: Ex-vivo IFN-γ ELISPOT assay; type: cell-based, mouse; settings: reducing agent TCEP, unpublished data
[2] = tested on: 1G4 CTL clone with peptide-pulsed T2 target cells; type: cell-based; settings: 30 min at 37°C
[3] = tested on: 1G4 CTL clone with peptide-pulsed T2 target cells; test: Live cell video microscopy of CTL lytic granule polarization; type: cell-based; settings: T2 cells pulsed with 1 μM peptide
[4] = tested on: Jurkat cells transfected with A2K^b cDNA; test: In vitro killing assay with CTL from ESO 9V-immunized mice; type: cell-based
[5] = target: HLA-A2 loaded with the wild-type NY-ESO-1 157-165 peptide …; test: SPR
[6] = target: HLA-A2 loaded with the NY-ESO-1 157-165 analogue peptide …; test: SPR

Kd [5] [µM] | Kd [6] [µM] | Substance | effect of TCEP on IFN-γ responses to ESO 9C peptide [1] | granule polarization [2] | rate of lytic granule polarization [3] | time from initial contact to granule polarization at the synapse ([3]; 1 h at 37°C, single CTL followed) [min] | time without polarization of lytic granules toward either target ([3]; second CTL (red arrow)) [min] | lysis of peptide-loaded target cells by CTL from ESO 9V-immunized mice [4]
 |  | SLLMWITQC [ESO 9C] | responses were enhanced in the presence of the reducing agent TCEP | polarization was poor | lytic granule polarization is slow | ≤ 17 | > 22 | capable of lysing target cells loaded with wild-type ESO 9C peptide
13.3 | 5 | soluble 1G4 TCR (NY-ESO-1 157-165-specific TCR from the 1G4 CTL clone) |  |  |  |  |  | 
